According to US6358885B1, “Substituted phenylheterocyclic herbicides” (Mississippi State University, priority 1992, dated 2002):

Key:
barley = assay: Test B preemergence/postemergence greenhouse plant response rating 0 to 10; format: in vivo, Hordeum vulgare; settings: 0 to 10 scale
Outline: (§1)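 Planted seeds are treated preemergence with compound dissolved in a non-phytotoxic solvent, while postemergence applications go onto plants of two to eighteen cm. Plants stay in the greenhouse twelve to sixteen days and are then rated visually relative to controls.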

bedstraw = assay: as above; format: in vivo, Galium aparine; settings: 0 to 10 scale
Outline: as §1

blackgrass = assay: as above; format: in vivo, Alopecurus myosuroides; settings: 0 to 10 scale
Outline: as §1

cotton = assay: as above; format: in vivo, Gossypium hirsutum; settings: 0 to 10 scale
Outline: as §1

lambsquarters = assay: as above; format: in vivo, Chenopodium album; settings: 0 to 10 scale
Outline: as §1

sorghum [1] = assay: as above; format: in vivo, Sorghum bicolor; settings: 0 to 10 scale
Outline: as §1

sugar beet = assay: as above; format: in vivo, Beta vulgaris; settings: 0 to 10 scale
Outline: as §1

wheat [2] = assay: as above; format: in vivo, Triticum aestivum; settings: 0 to 10 scale
Outline: as §1

wild oat [3] = assay: as above; format: in vivo, Avena fatua; settings: 0 to 10 scale
Outline: as §1

crabgrass = assay: Test C preemergence/postemergence greenhouse plant response rating 0 to 100; format: in vivo, Digitaria sanguinalis; settings: for Plant response rating, Crabgrass: 62 g/ha, 0 to 100 scale
Outline: (§2)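 Compounds in non-phytotoxic solvent went onto sandy loam before emergence (seeded one day earlier) or onto plants at the one-to-four leaf stage. Duck salad was treated via flood water (~2.5 cm, maintained) over silt loam.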

downy brome = assay: as above; format: in vivo, Bromus tectorum; settings: for Plant response rating Downy Brome: 62 g/ha, 0 to 100 scale
Outline: as §2

rape = assay: as above; format: in vivo, Brassica napus; settings: for Plant response rating, Rape: 62 g/ha, 0 to 100 scale
Outline: as §2

ryegrass = assay: as above; format: in vivo, Lolium multiflorum; settings: for Plant response rating Ryegrass: 62 g/ha, 0 to 100 scale
Outline: as §2

sorghum [4] = assay: as above; format: in vivo, Sorghum bicolor
Outline: as §2

wheat [5] = assay: as above; format: in vivo, Triticum aestivum
Outline: as §2

wild buckwheat = assay: as above; format: in vivo, Polygonum convolvulus
Outline: as §2

wild oat [6] = assay: as above; format: in vivo, Avena fatua
Outline: as §2

barnyardgrass = assay: Test C flood test plant response rating 0 to 100; format: in vivo, Echinochloa crus-galli
Outline: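 Compounds in non-phytotoxic solvent applied preemergence to sandy loam one day after planting, postemergence at the 1–4 leaf stage, or to ~2.5 cm floodwater over silt loam.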

[7] = POSTEMERGENCE, 62 g/ha, 0 to 100 scale

CC(C)Oc1cc(-c2nn3c(c2Br)CCCC3)c(F)cc1Cl [Compound 38]
50: Plant response rating Ryegrass (ryegrass; POSTEMERGENCE) | Plant response rating, Wheat (wheat [5]; [7]) | Plant response rating, Wild oat (wild oat [6]; [7])
5: Plant response rating, Sorghum (sorghum [1]; POSTEMERGENCE, Rate 50 g/ha) | Plant response rating, Wild oat (wild oat [3]; Rate 200 g/ha, POSTEMERGENCE)
60: Plant response rating (0 to 100), Sorghum (sorghum [4]; Rate 16 g/ha, POSTEMERGENCE)
40: Plant response rating, Crabgrass (crabgrass; POSTEMERGENCE) | Plant response rating Downy Brome (downy brome; POSTEMERGENCE) | Plant response rating (0 to 100), Rape (rape; Rate 16 g/ha, POSTEMERGENCE) | Plant response rating (0 to 100), Wild buckwheat (wild buckwheat; POSTEMERGENCE, Rate 1 g/ha)
4: Plant response rating, Barley (barley; POSTEMERGENCE, Rate 50 g/ha) | Plant response rating, Wheat (wheat [2]; POSTEMERGENCE, Rate 50 g/ha)
100: Plant response rating, Wild buckwheat (wild buckwheat; [7]) | Plant response rating (0 to 100), Wild buckwheat (wild buckwheat; POSTEMERGENCE, Rate 4 g/ha) | Plant response rating (0 to 100), Wild buckwheat (wild buckwheat; Rate 16 g/ha, POSTEMERGENCE) | Plant response rating Barnyardgrass 2 (barnyardgrass; flood test species listed under POSTEMERGENCE, 62 g/ha, 0 to 100 scale)
7: Plant response rating, Bedstraw (bedstraw; Rate 200 g/ha, PREEMERGENCE) | Plant response rating, Blackgrass (blackgrass; POSTEMERGENCE, Rate 200 g/ha)
1: Plant response rating, Barley (barley; Rate 200 g/ha, PREEMERGENCE) | Plant response rating, Blackgrass (blackgrass; PREEMERGENCE, Rate 50 g/ha) | Plant response rating, Blackgrass (blackgrass; Rate 200 g/ha, PREEMERGENCE) | Plant response rating, Sorghum (sorghum [1]; Rate 200 g/ha, PREEMERGENCE)
9: Plant response rating, Cotton (cotton; POSTEMERGENCE, Rate 50 g/ha) | Plant response rating, Cotton (cotton; Rate 200 g/ha, PREEMERGENCE)
2: Plant response rating, Wheat (wheat [2]; Rate 200 g/ha, PREEMERGENCE)
3: Plant response rating, Blackgrass (blackgrass; POSTEMERGENCE, Rate 50 g/ha) | Plant response rating, Wild oat (wild oat [3]; POSTEMERGENCE, Rate 50 g/ha)
6: Plant response rating, Barley (barley; POSTEMERGENCE, Rate 200 g/ha) | Plant response rating, Sorghum (sorghum [1]; Rate 200 g/ha, POSTEMERGENCE) | Plant response rating, Wheat (wheat [2]; Rate 200 g/ha, POSTEMERGENCE)
80: Plant response rating, Rape (rape; POSTEMERGENCE)
30: Plant response rating, Crabgrass (crabgrass; PREEMERGENCE) | Plant response rating (0 to 100), Crabgrass (crabgrass; Rate 16 g/ha, POSTEMERGENCE) | Plant response rating (0 to 100), Downy Brome (downy brome; Rate 16 g/ha, POSTEMERGENCE) | Plant response rating (0 to 100), Rape (rape; POSTEMERGENCE, Rate 4 g/ha) | Plant response rating, Rape (rape; PREEMERGENCE) | Plant response rating (0 to 100), Ryegrass (ryegrass; Rate 16 g/ha, POSTEMERGENCE) | Plant response rating (0 to 100), Sorghum (sorghum [4]; POSTEMERGENCE, Rate 4 g/ha) | Plant response rating (0 to 100), Wheat (wheat [5]; Rate 16 g/ha, POSTEMERGENCE) | Plant response rating (0 to 100), Wild oat (wild oat [6]; Rate 16 g/ha, POSTEMERGENCE)
70: Plant response rating, Sorghum (sorghum [4]; [7])
75: Plant response rating (0 to 100), Barnyardgrass 2 (barnyardgrass; Rate 16 g/ha, under POSTEMERGENCE head (flood test species))
0: Plant response rating, Barley (barley; PREEMERGENCE, Rate 50 g/ha) | Plant response rating, Bedstraw (bedstraw; PREEMERGENCE, Rate 50 g/ha) | Plant response rating, Cotton (cotton; PREEMERGENCE, Rate 50 g/ha) | Plant response rating, Sorghum (sorghum [1]; PREEMERGENCE, Rate 50 g/ha) | Plant response rating, Wheat (wheat [2]; PREEMERGENCE, Rate 50 g/ha) | Plant response rating, Wild oat (wild oat [3]; PREEMERGENCE, Rate 50 g/ha) | Plant response rating (0 to 100), Crabgrass (crabgrass; PREEMERGENCE, Rate 1 g/ha) | Plant response rating (0 to 100), Crabgrass (crabgrass; PREEMERGENCE, Rate 4 g/ha) | Plant response rating Downy Brome (downy brome; PREEMERGENCE) | Plant response rating (0 to 100), Downy Brome (downy brome; PREEMERGENCE, Rate 1 g/ha) | Plant response rating (0 to 100), Downy Brome (downy brome; PREEMERGENCE, Rate 4 g/ha) | Plant response rating (0 to 100), Downy Brome (downy brome; Rate 16 g/ha, PREEMERGENCE) | Plant response rating (0 to 100), Rape (rape; PREEMERGENCE, Rate 1 g/ha) | Plant response rating (0 to 100), Ryegrass (ryegrass; POSTEMERGENCE, Rate 1 g/ha) | Plant response rating Ryegrass (ryegrass; PREEMERGENCE) | Plant response rating (0 to 100), Ryegrass (ryegrass; PREEMERGENCE, Rate 1 g/ha) | Plant response rating (0 to 100), Ryegrass (ryegrass; PREEMERGENCE, Rate 4 g/ha) | Plant response rating (0 to 100), Ryegrass (ryegrass; Rate 16 g/ha, PREEMERGENCE) | Plant response rating (0 to 100), Sorghum (sorghum [4]; PREEMERGENCE, Rate 1 g/ha) | Plant response rating (0 to 100), Sorghum (sorghum [4]; PREEMERGENCE, Rate 4 g/ha) | Plant response rating (0 to 100), Wheat (wheat [5]; POSTEMERGENCE, Rate 1 g/ha) | Plant response rating (0 to 100), Wheat (wheat [5]; PREEMERGENCE, Rate 1 g/ha) | Plant response rating (0 to 100), Wheat (wheat [5]; PREEMERGENCE, Rate 4 g/ha) | Plant response rating (0 to 100), Wheat (wheat [5]; Rate 16 g/ha, PREEMERGENCE) | Plant response rating (0 to 100), Wild buckwheat (wild buckwheat; PREEMERGENCE, Rate 1 g/ha) | Plant response rating (0 to 100), Wild buckwheat (wild buckwheat; PREEMERGENCE, Rate 4 g/ha) | Plant response rating (0 to 100), Wild oat (wild oat [6]; POSTEMERGENCE, Rate 1 g/ha) | Plant response rating (0 to 100), Wild oat (wild oat [6]; PREEMERGENCE, Rate 1 g/ha) | Plant response rating (0 to 100), Wild oat (wild oat [6]; PREEMERGENCE, Rate 4 g/ha) | Plant response rating (0 to 100), Wild oat (wild oat [6]; Rate 16 g/ha, PREEMERGENCE)
10: Plant response rating, Bedstraw (bedstraw; POSTEMERGENCE, Rate 200 g/ha) | Plant response rating, Cotton (cotton; POSTEMERGENCE, Rate 200 g/ha) | Plant response rating, Lambsquarter (lambsquarters; POSTEMERGENCE, Rate 50 g/ha) | Plant response rating, Lambsquarter (lambsquarters; PREEMERGENCE, Rate 50 g/ha) | Plant response rating, Lambsquarter (lambsquarters; Rate 200 g/ha, POSTEMERGENCE) | Plant response rating, Lambsquarter (lambsquarters; Rate 200 g/ha, PREEMERGENCE) | Plant response rating, Sugar beet (sugar beet; POSTEMERGENCE, Rate 50 g/ha) | Plant response rating, Sugar beet (sugar beet; Rate 200 g/ha, POSTEMERGENCE) | Plant response rating, Sugar beet (sugar beet; Rate 200 g/ha, PREEMERGENCE) | Plant response rating (0 to 100), Crabgrass (crabgrass; POSTEMERGENCE, Rate 1 g/ha) | Plant response rating (0 to 100), Crabgrass (crabgrass; Rate 16 g/ha, PREEMERGENCE) | Plant response rating (0 to 100), Downy Brome (downy brome; POSTEMERGENCE, Rate 1 g/ha) | Plant response rating (0 to 100), Rape (rape; PREEMERGENCE, Rate 4 g/ha) | Plant response rating (0 to 100), Ryegrass (ryegrass; POSTEMERGENCE, Rate 4 g/ha) | Plant response rating (0 to 100), Sorghum (sorghum [4]; Rate 16 g/ha, PREEMERGENCE) | Plant response rating (0 to 100), Wild oat (wild oat [6]; POSTEMERGENCE, Rate 4 g/ha) | Plant response rating (0 to 100), Barnyardgrass 2 (barnyardgrass; POSTEMERGENCE section, flood test, Rate 1 g/ha)
8: Plant response rating, Sugar beet (sugar beet; PREEMERGENCE, Rate 50 g/ha)
20: Plant response rating (0 to 100), Crabgrass (crabgrass; POSTEMERGENCE, Rate 4 g/ha) | Plant response rating (0 to 100), Downy Brome (downy brome; POSTEMERGENCE, Rate 4 g/ha) | Plant response rating (0 to 100), Rape (rape; POSTEMERGENCE, Rate 1 g/ha) | Plant response rating (0 to 100), Rape (rape; Rate 16 g/ha, PREEMERGENCE) | Plant response rating (0 to 100), Sorghum (sorghum [4]; POSTEMERGENCE, Rate 1 g/ha) | Plant response rating (0 to 100), Wheat (wheat [5]; POSTEMERGENCE, Rate 4 g/ha) | Plant response rating (0 to 100), Wild buckwheat (wild buckwheat; Rate 16 g/ha, PREEMERGENCE) | Plant response rating (0 to 100), Barnyardgrass 2 (barnyardgrass; Rate 4 g/ha, under POSTEMERGENCE head (flood test species))
